Results on two molecules are retold here after publication PMC11913368, “Antilipase activities of cultivated peppermint and rosemary essential oils: in vitro and in silico studies” (Turkish Journal of Biology, 2025).

In the test the test system is T1, Candida rugosa lipase (CRL).
T1 construct: gene LIP1
Briefly: p-nitrophenyl laurate hydrolysis, absorbance at […] nm. The format is biochemical, Diutina rugosa. As to conditions: substrate p-NPL, pH 7, 37 °C, 15 min preincubation with enzyme; reference compound.

In brackets after ≈: the same amount, converted by molar mass.

On to `O=c1c(O)c(-c2ccc(O)c(O)c2)oc2cc(O)cc(O)c12` [Quercetin], for which the “IC50 value” worked out at 320 ± 4 µg/mL (≈ 1060 µM).
Regarding `CCCCCCCCCCC[C@@H](C[C@@H]1OC(=O)[C@H]1CCCCCC)OC(=O)[C@H](CC(C)C)NC=O` [Orlistat], the “IC50 value” stood at 60 ± 0 µg/mL (≈ 121 µM).
